In brackets after ≈: the same amount, converted by molar mass. Like-named read-outs stand apart in the source and are kept apart here. Square brackets hold non-standard residues; d marks the D form. Primed or numbered codes have the meaning given here. Side chains are listed from the residue outwards. Peptide text beside a SMILES is read from it. * marks the point of attachment. Orn(α-tetramethylguanidino) = CN(C)C(=N[C@@H](CCCN)C(=O)*)N(C)C; Guan″ = guanidino group at the N-terminus, N=C(N)*; sPEG750 = PEG of 750 linked via acid group; Guan = N-guanidino (N-terminal), N=C(N)*; Hyp = O=C(O)[C@@H]1C[C@@H](O)CN1; Tle = CC(C)(C)[C@H](N)C(=O)O; Orn = NCCC[C@H](N)C(=O)O
Experiments:
[1] = mouse; for uncleaved peptide remaining after the indicated time (instead of half-life): serum, 6 h, 15 µg/ml
Protocol: (§2) 30 μl of a 1 mg/ml peptide solution were diluted with 120 μl of water and, after addition of 50 of serum, incubated at 37° C. for 0 hours, 0.5 hour, 1 hour, 2 hours or 4 hours. Alternatively, the peptide derivatives having a starting concentration of 3 mg/ml were diluted with serum to a final concentration of 15 μg/ml. According to the stability of the peptides, the samples were analysed at the times mentioned above or after 0 hours, 4 hours and 6 hours. The serum proteins were precipitated by addition of 50 μl of 15% TCA, and the supernatant was neutralised with 25 μl of 1 mol/l NaOH. The samples were made up to 250 μl with 5% B, 230 μl of the solution were transferred into a HPLC vial, and 220 μl were injected.
(§3) RP-HPLC analysis was carried out with a linear acetonitrile gradient (Biosolve BV, Valkenswaard, Netherlands) in the presence of 0.1% trifluoroacetic acid (TFA, UV grade, Fluka Chemie GmbH, Buchs, Switzerland) as ion-pair reagent. The fractions were co-crystallised with α-cyanohydroxycinnamic acid (Bruker Daltonik GmbH; Bremen, Germany) as matrix (4 mg/ml in 60% acetonitrile in 0.1% aqueous TFA) and analysed with a tandem mass spectrometer (MALDI-TOF/TOF-MS, 4700 Proteomics Analyzer; Applied Biosystems GmbH, Weiterstadt, Germany) in positive-ion reflector mode. The amount of intact peptides and their degradation products or metabolites could thus be identified and quantified at the individual times. 25% aqueous mouse serum, which was analysed in parallel for the same time intervals, was used as control.

[2] = tested on: Escherichia coli strain BL21AI; assay: Minimum inhibitory concentration in 1% TSB; assay type: cell-based; conditions: for MIC in TSB: E. coli BL21AI, 1% TSB, 20 hours at 37° C.; for Effect of peptide linker or remaining linker residues on the MIC: compared with the unmodified peptide
Protocol: (§1) To that end, the peptides were dissolved in water and diluted in a two-fold dilution series with 1% aqueous soybean medium (TSB) in sterile 96-well plates (Greiner Bio-One GmbH) from 128 μg/ml in twelve dilution steps to 62.5 ng/ml. Overnight cultures of Escherichia coli strain BL21AI were adjusted with 1% TSB to about […] colony forming units per ml. In each case 50 μl of peptide solution per well were then mixed with in each case 50 μl of the bacteria solution, in order to achieve a starting concentration of 4×10^5 bacteria per well. After incubation for 20 hours at 37° C., the absorption at 595 nm was determined (microplate reader, TECAN Trading AG).

[3] = tested on: Escherichia coli strain BL21AI; assay: Minimum inhibitory concentration in TSB in the presence of 25% mouse serum; assay type: cell-based; conditions: E. coli BL21AI, TSB with 25% mouse serum, 20 hours at 37° C.
Protocol: as §1
In addition, the antibacterial activity was also determined in the presence of 25% mouse serum. To that end, the MIC values were determined as described above, but 25 μl of mouse serum were also added to each well before the incubation (25% final concentration).

[4] = Serum stability / release of peptide in pure mouse serum (100%) (RP-HPLC, MALDI-MS)
Protocol: as §2, §3

[5] = 25% aqueous mouse serum; conditions: 37° C., up to 6 hours

## Guan-ONO(sPEG^750-GARSG)RPVYIPRPRPPHPRL-OH ({Guan″}-[Orn]N[Orn]RPVYIPRPRPPHPRL-OH; not fully specified (residue 3)) [Api 301 (sPEG^750-GARSG)]
[1]
  Half-life (t1/2) in serum: 45 min
[2]
  MIC in TSB: 2.9 µmol/L
[3]
  MIC in TSB/mouse serum: 0.27 µmol/L

## Guan-OO(tPEG^5000-GARSG)NRPVYIPRPRPPHPRL-OH (Guan-[Orn][Orn]NRPVYIPRPRPPHPRL-OH; not fully specified (residue 2)) [Api 300 (tPEG^5000-GARSG)]
[1]
  uncleaved peptide remaining after the indicated time (instead of half-life): 69%
[2]
  MIC in TSB: 17.4 µmol/L
[3]
  MIC in TSB/mouse serum: 0.44 µmol/L

## sPEG^750-GAR-VDKPPYLPRPRPPROIYNO-NH2 (sPEG750-GARVDKPPYLPRPRPPR[Orn]IYN[Orn]-NH2) [sPEG^750-GAR-Onc 72]
[4]; pure mouse serum, 37° C.
  Half-life (t1/2) in serum: 6 h
[2]
  MIC in TSB: 12.2 µmol/L
[3]
  MIC in TSB/mouse serum: 6.1 µmol/L

## CC[C@H](C)[C@H](NC(=O)[C@H](Cc1ccc(O)cc1)NC(=O)[C@@H](NC(=O)[C@@H]1CCCN1C(=O)[C@H](CCCNC(=N)N)NC(=O)[C@H](CC(N)=O)NC(=O)[C@H](CCCNC(=O)CNC(=O)[C@@H](N)CO)NC(=O)[C@H](CCCN)N=C(N(C)C)N(C)C)C(C)C)C(=O)N1CCC[C@H]1C(=O)N[C@@H](CCCNC(=N)N)C(=O)N1CCC[C@H]1C(=O)N[C@@H](CCCNC(=N)N)C(=O)N1CCC[C@H]1C(=O)N1CCC[C@H]1C(=O)N[C@@H](Cc1c[nH]cn1)C(=O)N1CCC[C@H]1C(=O)N[C@@H](CCCNC(=N)N)C(=O)N[C@@H](CC(C)C)C(=O)O [Api 300 (SG)] ({Orn(α-tetramethylguanidino)}-[Orn]([Gly-Ser])NRPVYIPRPRPPHPRL-OH)
[4]; mouse, pure (100%) mouse serum
  half-life at 15 µg/ml: 240 min
[2]
  MIC in TSB: 0.8 µmol/L (≈ 1.95 µg/mL)
  Effect of peptide linker or remaining linker residues on the MIC: does not increase the MIC or increases it only insignificantly
[3]
  MIC in TSB/mouse serum: 0.21 µmol/L

## sPEG^750-GAR-VDKPPYLPRPRPHypRHypTleYNO-NH2 (sPEG750-GARVDKPPYLPRPRP[Hyp]R[Hyp][Tle]YN[Orn]-NH2) [sPEG^750-GAR-Onc 110]
[1]
  uncleaved peptide remaining after the indicated time (instead of half-life): 73%
[2]
  MIC in TSB: 24.3 µmol/L
[3]
  MIC in TSB/mouse serum: 9.2 µmol/L

## CC(C)C[C@H](NC(=O)[C@H](Cc1ccc(O)cc1)NC(=O)[C@@H]1CCCN1C(=O)[C@@H]1CCCN1C(=O)[C@H](CCCCN)NC(=O)[C@H](CC(=O)O)NC(=O)[C@@H](NC(=O)[C@H](CCCNC(=N)N)NC(=O)[C@H](C)NC(=O)CN)C(C)C)C(=O)N1CCC[C@H]1C(=O)N[C@@H](CCCNC(=N)N)C(=O)N1CCC[C@H]1C(=O)N[C@@H](CCCNC(=N)N)C(=O)N1CCC[C@H]1C(=O)N1C[C@H](O)C[C@H]1C(=O)N[C@@H](CCCNC(=N)N)C(=O)N1C[C@H](O)C[C@H]1C(=O)N[C@H](C(=O)N[C@@H](Cc1ccc(O)cc1)C(=O)N[C@@H](CC(N)=O)C(=O)N[C@@H](CCCN)C(N)=O)C(C)(C)C [GAR-Onc 110] (H-GARVDKPPYLPRPRP[Hyp]R[Hyp][Tle]YN[Orn]-NH2)
[4]; mouse, pure (100%) mouse serum
  remaining at 4 h, 15 µg/ml: 75%
[2]
  MIC in TSB: 1.5 µmol/L (≈ 3.91 µg/mL)
  Effect of peptide linker or remaining linker residues on the MIC: does not increase the MIC or increases it only insignificantly
[3]
  MIC in TSB/mouse serum: 0.65 µmol/L

## Guan-O(sPEG^750-GRSG)NNRPVYIPRPRPPHPRL-OH
[5]
  cleaved bond: R-S

## CC[C@H](C)[C@H](NC(=O)[C@H](Cc1ccc(O)cc1)NC(=O)[C@@H](NC(=O)[C@@H]1CCCN1C(=O)[C@H](CCCNC(=N)N)NC(=O)[C@H](CCCNC(=O)CNC(=O)[C@@H](N)CO)NC(=O)[C@H](CC(N)=O)NC(=O)[C@H](CCCN)N=C(N(C)C)N(C)C)C(C)C)C(=O)N1CCC[C@H]1C(=O)N[C@@H](CCCNC(=N)N)C(=O)N1CCC[C@H]1C(=O)N[C@@H](CCCNC(=N)N)C(=O)N1CCC[C@H]1C(=O)N1CCC[C@H]1C(=O)N[C@@H](Cc1c[nH]cn1)C(=O)N1CCC[C@H]1C(=O)N[C@@H](CCCNC(=N)N)C(=O)N[C@@H](CC(C)C)C(=O)O [Api 301 (SG)] ({Orn(α-tetramethylguanidino)}-N[Orn]([Gly-Ser])RPVYIPRPRPPHPRL-OH)
[4]; mouse, pure (100%) mouse serum
  remaining at 4 h, 15 µg/ml: 60%
[2]
  MIC in TSB: 1.6 µmol/L (≈ 3.9 µg/mL)
  Effect of peptide linker or remaining linker residues on the MIC: does not increase the MIC or increases it only insignificantly

## CC[C@H](C)[C@H](NC(=O)[C@H](Cc1ccc(O)cc1)NC(=O)[C@@H](NC(=O)[C@@H]1CCCN1C(=O)[C@H](CCCNC(=N)N)NC(=O)[C@H](CC(N)=O)NC(=O)[C@H](CC(N)=O)NC(=O)[C@H](CCCN)N=C(N(C)C)N(C)C)C(C)C)C(=O)N1CCC[C@H]1C(=O)N[C@@H](CCCNC(=N)N)C(=O)N1CCC[C@H]1C(=O)N[C@@H](CCCNC(=N)N)C(=O)N1CCC[C@H]1C(=O)N1CCC[C@H]1C(=O)N[C@@H](Cc1c[nH]cn1)C(=O)N1CCC[C@H]1C(=O)N[C@@H](CCCNC(=N)N)C(=O)N[C@@H](CC(C)C)C(N)=O [Api 88, Guan-ONNRPVYIPRPRPPHPRL-NH2, reference compound] ({Orn(α-tetramethylguanidino)}-NNRPVYIPRPRPPHPRL-NH2)
[2]
  MIC in TSB: 0.44 µmol/L (≈ 1.01 µg/mL)
[3]
  MIC in TSB/mouse serum: 1.19 µmol/L

## CC[C@H](C)[C@H](NC(=O)[C@H](CCCN)NC(=O)[C@H](CCCNC(=N)N)NC(=O)[C@@H]1CCCN1C(=O)[C@@H]1CCCN1C(=O)[C@H](CCCNC(=N)N)NC(=O)[C@@H]1CCCN1C(=O)[C@H](CCCNC(=N)N)NC(=O)[C@@H]1CCCN1C(=O)[C@H](CC(C)C)NC(=O)[C@H](Cc1ccc(O)cc1)NC(=O)[C@@H]1CCCN1C(=O)[C@@H]1CCCN1C(=O)[C@H](CCCCN)NC(=O)[C@H](CC(=O)O)NC(=O)[C@@H](N)C(C)C)C(=O)N[C@@H](Cc1ccc(O)cc1)C(=O)N[C@@H](CC(N)=O)C(=O)N[C@@H](CCCN)C(N)=O [Onc 72, VDKPPYLPRPRPPROIYNO-NH2] (H-VDKPPYLPRPRPPR[Orn]IYN[Orn]-NH2)
[2]
  MIC in TSB: 1.7 µmol/L (≈ 3.92 µg/mL)
[3]
  MIC in TSB/mouse serum: 1.7 µmol/L

## Guan-OO(sPEG^750-GARSG)NRPVYIPRPRPPHPRL-OH (Guan-[Orn][Orn]NRPVYIPRPRPPHPRL-OH; not fully specified (residue 2)) [Api 300 (sPEG^750-GARSG)]
[1]
  Half-life (t1/2) in serum: 35 min
[2]
  MIC in TSB: 2.9 µmol/L
[3]
  MIC in TSB/mouse serum: 0.54 µmol/L

## tPEG^750-GAR-VDKPPYLPRPRPPROIYNO-NH2 (tPEG750-GARVDKPPYLPRPRPPR[Orn]IYN[Orn]-NH2; not fully specified; printed as tPEG^750-GAR-VDKPPYLPRPRPPROIYNO-NH2) [tPEG^750-GAR-Onc 72]
[4]; pure mouse serum, 6 h
  uncleaved peptide remaining after the indicated time (instead of half-life): 55%
[2]
  MIC in TSB: 24.3 µmol/L

## CC[C@H](C)[C@H](NC(=O)[C@H](Cc1ccc(O)cc1)NC(=O)[C@@H](NC(=O)[C@@H]1CCCN1C(=O)[C@H](CCCNC(=N)N)NC(=O)[C@H](CC(N)=O)NC(=O)[C@H](CC(N)=O)NC(=O)[C@H](CCCN)N=C(N(C)C)N(C)C)C(C)C)C(=O)N1CCC[C@H]1C(=O)N[C@@H](CCCNC(=N)N)C(=O)N1CCC[C@H]1C(=O)N[C@@H](CCCNC(=N)N)C(=O)N1CCC[C@H]1C(=O)N1CCC[C@H]1C(=O)N[C@@H](Cc1c[nH]cn1)C(=O)N1CCC[C@H]1C(=O)N[C@@H](CCCN)C(=O)N[C@@H](CC(C)C)C(N)=O [Api 134, Guan-ONNRPVYIPRPRPPHPOL-NH2, reference compound] ({Orn(α-tetramethylguanidino)}-NNRPVYIPRPRPPHP[Orn]L-NH2)
[2]
  MIC in TSB: 1.78 µmol/L (≈ 4 µg/mL)
[3]
  MIC in TSB/mouse serum: 7.12 µmol/L

## Guan-OO(sPEG^750-GRSG)NRPVYIPRPRPPHPRL-OH (Guan-[Orn][Orn]NRPVYIPRPRPPHPRL-OH; not fully specified (residue 2)) [Api 300 (sPEG^750-GRSG)]
[1]
  Half-life (t1/2) in serum: 50 min
[2]
  MIC in TSB: 2.9 µmol/L
[3]
  MIC in TSB/mouse serum: 0.37 µmol/L

## CC[C@H](C)[C@H](NC(=O)[C@H](CCCN)NC(=O)[C@H](CCCNC(=N)N)NC(=O)[C@@H]1CCCN1C(=O)[C@@H]1CCCN1C(=O)[C@H](CCCNC(=N)N)NC(=O)[C@@H]1CCCN1C(=O)[C@H](CCCNC(=N)N)NC(=O)[C@@H]1CCCN1C(=O)[C@H](CC(C)C)NC(=O)[C@H](Cc1ccc(O)cc1)NC(=O)[C@@H]1CCCN1C(=O)[C@@H]1CCCN1C(=O)[C@H](CCCCN)NC(=O)[C@H](CC(=O)O)NC(=O)[C@@H](NC(=O)[C@H](CCCNC(=N)N)NC(=O)[C@H](C)NC(=O)CN)C(C)C)C(=O)N[C@@H](Cc1ccc(O)cc1)C(=O)N[C@@H](CC(N)=O)C(=O)N[C@@H](CCCN)C(N)=O [GAR-Onc 72, GAR-VDKPPYLPRPRPPROIYNO-NH2] (H-GARVDKPPYLPRPRPPR[Orn]IYN[Orn]-NH2)
[4]; mouse, pure (100%) mouse serum
  remaining at 4 h, 15 µg/ml: 85%
[2]
  MIC in TSB: 3.1 µmol/L (≈ 8.03 µg/mL)
  Effect of peptide linker or remaining linker residues on the MIC: does not increase the MIC or increases it only insignificantly

Reference: US9856298B2 (priority 2011, dated 2018)
